Measurements as given in patent US20150329467A1, “FLUORINE ATOM-CONTAINING PHENOL COMPOUND” (FUJIFILM CORPORATION, priority 2012, published 2015).
“Also recorded” adds a separate entry of the source.

Assay: Solubility check: coated film of Cytop CTL-809M fluororesin solution observed by optical microscope for bleed-out or undissolved compound
Type: physicochemical
Conditions: compound at 0.3 wt % with respect to Cytop CTL-809M in perfluorotributylamine/1,1,1,3,3,3-hexafluoropropan-2-ol/Cytop CTL-809M=91/5/4 (parts by weight); film 1.5 μm on glass, dried
Method: To a mixed solution of perfluorotributylamine/1,1,1,3,3,3-hexafluoropropan-2-ol/Cytop CTL-809M (manufactured by Asahi Glass Co., Ltd.)=91/5/4 (parts by weight), was added the compound represented by formula (1) according to the invention (any of Compounds 1-1 to 1-8) or Comparative Compound C-1 or C-2 as shown below in an amount of 0.3 wt % with respect to the Cytop CTL-809M. Thereafter, the mixed solution was applied onto a glass substrate to a film thickness of 1.5 μm and dried.

Structure (SMILES)	Solubility
CC(C)(C)c1cc(CCC(=O)OCC(F)(F)C(F)(F)C(F)(F)C(F)(F)C(F)(F)C(F)(F)C(F)(F)C(F)(F)C(F)(F)F)cc(C(C)(C)C)c1O [Compound 1-1]	Compatible
CC(C)(C)c1cc(CCC(=O)OCC(O)CC(F)(F)C(F)(F)C(F)(F)C(F)(F)C(F)(F)C(F)(F)C(F)(F)C(F)(F)F)cc(C(C)(C)C)c1O (stereo not shown) [Compound 1-2]	Compatible
Cc1cc(CCC(=O)OCC(F)(F)C(F)(F)C(F)(F)C(F)(F)C(F)(F)C(F)(F)C(F)(F)C(F)(F)C(F)(F)F)cc(C(C)(C)C)c1O [Compound 1-3]	Compatible
CC(C)(C)c1cc(CCC(=O)OCC(F)(F)C(F)(F)C(F)(F)C(F)(F)C(F)(F)C(F)(F)C(F)(F)C(F)(F)F)cc(C(C)(C)C)c1O [Compound 1-4]	Compatible
CC(C)(C)c1cc(CCC(=O)OCCC(F)(F)C(F)(F)C(F)(F)C(F)(F)C(F)(F)C(F)(F)F)cc(C(C)(C)C)c1O [Compound 1-5]	Compatible
Cc1cc(CCC(=O)OCC(F)(F)C(F)(F)C(F)(F)C(F)(F)C(F)(F)C(F)(F)C(F)(F)C(F)(F)C(F)(F)F)cc(C)c1O [Compound 1-6]	Compatible
CC(C)(C)c1cc(CCC(=O)OC(CO)CC(F)(F)C(F)(F)C(F)(F)C(F)(F)C(F)(F)C(F)(F)F)cc(C(C)(C)C)c1O (stereo not shown) [Compound 1-7]	Compatible
Cc1cc(CCC(=O)OCC(F)(F)C(F)(F)C(F)(F)C(F)(F)C(F)(F)C(F)(F)C(F)(F)C(F)(F)C(F)(F)C(F)(F)F)cc(C)c1O [Compound 1-8]	Compatible
CCCCCCCCCCOC(=O)CCc1cc(C(C)(C)C)c(O)c(C(C)(C)C)c1 [Compound C-1, reference compound]	remained partially undissolved; also recorded: Remain partially
CC(C)(C)c1cc(CCC(=O)OCC(O)CC(F)(F)C(F)(F)C(F)(F)F)cc(C(C)(C)C)c1O (stereo not shown) [Compound C-2, reference compound]	bled out on the resin surface; also recorded: Bleed out (a compound which bleeds out is denoted by “Bleed out,”)
